Measurements published in patent US4789683A, “Benzamido-derivatives” (priority 1981, dated 1988).
Where two headings read alike, the source gives them in different places.

Experiments:
[1] = test system: DA receptors in the brain; assay: Block of apomorphine-induced hyperactivity in the rat; assay type: in vivo, Male Sprague-Dawley rats; conditions: for potency to block apomorphine, ED50 Hyperactivity: p.o., rat; for Block of apomorphine ED50, hyperactivity: i.p., 60 min prior to apomorphine HCl 1 mg/kg s.c.
From the text: There are presently several techniques available to study DA receptor blockage in the brain in vico. One method is based on the ability of antipsychotic drugs to block the behavioural effects induced by the DA agonist apomorphine in the rat. […] The stereotypies (chewing, […], biting) appear mainly to be induced via activation of DA receptors linked to the neostriatal DA system (J. Psychiat. […] Directly after injection, the animals were placed in the cages, one in each cage. Scoring of the stereotypies were performed by two separate methods. […] The strength of the stereotype was scored on a 0-3 scale as follows: In the second system the number of animals displaying hyperactivity caused by apomorphine were scored. Each group consisted of 6-8 animals. Saline controls were always run simultaneously.

[2] = target: T1, DA receptors in the brain (Rattus norvegicus, UniProt P61169); assay: Block of apomorphine-induced stereotypies in the rat (0-3 scale); assay type: in vivo, Male Sprague-Dawley rats
T1 construct: from tissue; host or cells: brain of live male Sprague-Dawley rats (in vivo behavioural test)
Procedure: There are presently several techniques available to study DA receptor blockage in the brain in vico. One method is based on the ability of antipsychotic drugs to block the behavioural effects induced by the DA agonist apomorphine in the rat.
Directly after injection, the animals were placed in the cages, one in each cage. Scoring of the stereotypies were performed by two separate methods. […] The strength of the stereotype was scored on a 0-3 scale as follows:
3 Continous sniffing. Chewing, biting and licking.
In the second system the number of animals displaying hyperactivity caused by apomorphine were scored. Each group consisted of 6-8 animals. Saline controls were always run simultaneously. […] The ED50 were calculated from log dose-response curves by the method of least squares from 4-6 dose levels with 6-8 animals per dose level.

[3] = experimental animals; cited from earlier work
[4] = in vivo; cited from earlier work
[5] = po, rat, read-out: potency to block apomorphine, ED50 Stereotypies
[6] = rat, ip, 60 min prior to apomorphine HCl 1 mg/kg s.c., read-out: Block of apomorphine ED50, stereotypes

T1 sequence (P61169 whole entry): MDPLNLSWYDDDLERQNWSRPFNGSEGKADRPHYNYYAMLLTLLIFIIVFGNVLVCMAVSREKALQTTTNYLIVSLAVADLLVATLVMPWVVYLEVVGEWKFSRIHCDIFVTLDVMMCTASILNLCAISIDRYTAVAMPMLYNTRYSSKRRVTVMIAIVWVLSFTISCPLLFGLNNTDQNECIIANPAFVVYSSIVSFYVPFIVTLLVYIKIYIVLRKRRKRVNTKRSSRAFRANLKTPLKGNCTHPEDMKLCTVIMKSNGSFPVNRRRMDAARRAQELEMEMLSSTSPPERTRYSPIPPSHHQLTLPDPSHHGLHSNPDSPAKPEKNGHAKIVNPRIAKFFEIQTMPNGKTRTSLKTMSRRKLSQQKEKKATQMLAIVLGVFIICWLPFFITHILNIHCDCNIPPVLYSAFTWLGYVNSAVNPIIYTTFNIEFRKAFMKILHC

Row | ED50 [2, 5] [µmol/kg] | ED50 [2, 6] [µmol/kg] | Structure (SMILES) | potency to block apomorphine, ED50 Hyperactivity [1] [µmol/kg] | Block of apomorphine ED50, hyperactivity [1] [µmol/kg] | other results
1 | 34 | – | CCOc1ccc(Br)c(O)c1C(=O)NCC1CCCN1CC (single isomer, unassigned) [901(-)] | 3.0 | – | –
2 | 12 | 2.3 | CCN1CCCC1CNC(=O)c1c(O)c(Br)cc(Br)c1OC (single isomer, unassigned) [FLA 659 (-)] | 3.2 | 0.40 | –
3 | 22 | 0.38 | CCN1CCCC1CNC(=O)c1c(OC)ccc(Br)c1O (single isomer, unassigned) [FLA 797 (-)] | 3 | 0.035 | –
4 | 25 | 1.1 | CCN1CCCC1CNC(=O)c1c(OC)ccc(Cl)c1O (single isomer, unassigned) [FLA 814 (-)] | 4.4 | 0.14 | –
5 | – | – | CCN1CCCC1CNC(=O)c1c(O)c(Cl)cc(Cl)c1OC (single isomer, unassigned) [FLA 870 (-)] | – | 0.11 | Block of apomorphine ED50, stereotypes ([2]; i.p., 60 min prior to apomorphine HCl 1 mg/kg s.c.): 2.4 µmol/kg
6 | – | 0.75 | CCCN1CCCC1CNC(=O)c1c(OC)ccc(Br)c1O (single isomer, unassigned) [FLA 889 (-)] | – | 0.27 | –
7 | – | 1.1 | CCN1CCCC1CNC(=O)c1c(OC)ccc(Br)c1O (stereo not drawn) [FLA 797] | – | 0.22 | –
8 | – | 3.4 | CCOc1ccc(Br)c(O)c1C(=O)NCC1CCCN1CC (stereo not drawn) [FLA 901] | – | 1.1 | –
9 | – | 0.53 | CCN1CCCC1CNC(=O)c1c(OC)ccc(Br)c1OC(C)=O (stereo not drawn) [FLA 903] | – | – | –
10 | – | 10 | CCN1CCCC1CNC(=O)c1c(O)ccc(Br)c1OC (stereo not drawn) [FLA 908] | – | 1.1 | –
11 | – | – | CCN1CCCC1CNC(=O)c1cc(S(N)(=O)=O)ccc1OC (stereo not drawn) [Sulpiride, reference compound] | – | 50 | activity after oral administration ([2]; p.o., rat, apomorphine stereotypies and hyperactivity, in words): lost all activity; ED50 ([2]; rat, ip, read-out: Block of apomorphine ED50, stereotypes): 203 µmol/kg; catalepsy [3]: weak catalepsy; extrapyramidal side effects [4]: weak extrapy ramidal side effects
